# Calls of active or inactive are those of the source. The rule behind the calls is not given here.
# Molecular target: Dual 3',5'-cyclic-AMP and -GMP phosphodiesterase 11A (Homo sapiens) (UniProt Q9HCR9)
# Assay: Inhibition of recombinant N-terminal GST-tagged human PDE11A4 (1 to 943 residues) expressed in Sf9 cells at 500 nM using cGMP and cAMP as substrates by Ba(OH)2 precipitation method relative to control
# Dual 3',5'-cyclic-AMP and -GMP phosphodiesterase 11A (Homo sapiens), sequence (Q9HCR9 whole entry, looked up, the tested form may be a part): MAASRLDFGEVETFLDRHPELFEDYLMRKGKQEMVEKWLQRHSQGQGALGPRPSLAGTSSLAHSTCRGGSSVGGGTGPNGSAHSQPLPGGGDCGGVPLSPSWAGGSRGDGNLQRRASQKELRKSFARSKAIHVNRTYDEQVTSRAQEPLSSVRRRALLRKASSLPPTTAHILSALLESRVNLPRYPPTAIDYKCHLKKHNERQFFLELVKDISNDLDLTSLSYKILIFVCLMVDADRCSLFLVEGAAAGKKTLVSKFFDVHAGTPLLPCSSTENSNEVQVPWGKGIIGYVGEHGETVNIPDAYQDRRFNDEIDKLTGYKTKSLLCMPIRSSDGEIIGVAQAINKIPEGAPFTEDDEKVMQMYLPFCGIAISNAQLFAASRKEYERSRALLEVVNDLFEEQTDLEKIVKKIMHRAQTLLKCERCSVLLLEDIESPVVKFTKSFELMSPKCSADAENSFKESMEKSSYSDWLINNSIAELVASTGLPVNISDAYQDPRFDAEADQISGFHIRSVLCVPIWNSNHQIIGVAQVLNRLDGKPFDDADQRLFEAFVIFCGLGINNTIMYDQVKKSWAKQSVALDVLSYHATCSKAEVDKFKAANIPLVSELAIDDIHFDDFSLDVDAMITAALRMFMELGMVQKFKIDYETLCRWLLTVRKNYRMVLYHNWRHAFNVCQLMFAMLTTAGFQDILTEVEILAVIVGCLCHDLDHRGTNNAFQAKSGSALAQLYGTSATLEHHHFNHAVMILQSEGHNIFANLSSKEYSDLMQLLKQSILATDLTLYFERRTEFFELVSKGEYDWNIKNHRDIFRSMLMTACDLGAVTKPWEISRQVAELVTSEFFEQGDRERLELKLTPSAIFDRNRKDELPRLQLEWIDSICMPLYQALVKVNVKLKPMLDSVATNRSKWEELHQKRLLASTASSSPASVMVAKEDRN
row,SMILES,inhibition
1,Cc1nn(-c2ccccc2)c2nc(-c3cccs3)cc(C(=O)N3CCCC3)c12,1%
2,CCN(CC)C(=O)c1cc(-c2ccnn2C)nc2c1c(C)nn2-c1ccc(Cl)c(F)c1,51%
3,CCN(CC)C(=O)c1ccnc2c1c(C)nn2-c1ccccc1,inactive

# From ChEMBL document CHEMBL6127158, “Novel Aminopyrazole Inhibitors of PDE11A for the Treatment of Alzheimer's Disease and Other Types of Dementia” (ACS Med Chem Lett, 2024)
